Test results from the NIST ThermoML archive (doi:10.1021/je800224k).
± gives the expanded uncertainty stated by the source.

Settings: Liquid, Bellows volumetry

CCn1cc[n+](C)c1.F[B-](F)(F)F [1-ethyl-3-methylimidazolium tetrafluoroborate]
mass density [kg/m3]
Settings | 392.9 K | 413 K | 432.9 K | 452.6 K | 472.4 K
10000 kPa | – | 1202 ± 4 | 1189 ± 4 | 1176 ± 4 | 1163 ± 4
20000 kPa | – | 1208 ± 4 | 1195 ± 4 | 1182 ± 4 | 1169 ± 4
30000 kPa | – | 1213 ± 4 | 1200 ± 4 | 1188 ± 4 | 1175 ± 4
40000 kPa | – | 1219 ± 4 | 1206 ± 4 | 1193 ± 4 | 1181 ± 4
50000 kPa | – | 1224 ± 4 | 1211 ± 4 | 1199 ± 4 | 1187 ± 4
60000 kPa | – | 1229 ± 4 | 1216 ± 4 | 1204 ± 4 | 1192 ± 4
70000 kPa | – | 1233 ± 4 | 1221 ± 4 | 1209 ± 4 | 1197 ± 4
80000 kPa | – | 1238 ± 4 | 1226 ± 4 | 1214 ± 4 | 1202 ± 4
90000 kPa | 1254 ± 5 | 1242 ± 5 | 1230 ± 4 | 1219 ± 4 | 1207 ± 4
100000 kPa | 1259 ± 5 | 1247 ± 5 | 1235 ± 4 | 1223 ± 4 | 1212 ± 4
110000 kPa | 1263 ± 5 | 1251 ± 5 | 1239 ± 4 | 1228 ± 4 | 1217 ± 4
120000 kPa | 1267 ± 5 | 1255 ± 5 | 1243 ± 5 | 1232 ± 4 | 1221 ± 4
130000 kPa | 1270 ± 5 | 1259 ± 5 | 1247 ± 5 | 1236 ± 4 | 1226 ± 4
140000 kPa | 1274 ± 5 | 1263 ± 5 | 1252 ± 5 | 1240 ± 4 | 1230 ± 4
150000 kPa | 1278 ± 5 | 1267 ± 5 | 1255 ± 5 | 1245 ± 5 | 1234 ± 4
160000 kPa | 1282 ± 5 | 1270 ± 5 | 1259 ± 5 | 1248 ± 5 | 1238 ± 4
170000 kPa | 1285 ± 5 | 1274 ± 5 | 1263 ± 5 | 1252 ± 5 | 1242 ± 5
180000 kPa | 1289 ± 5 | 1278 ± 5 | 1267 ± 5 | 1256 ± 5 | 1246 ± 5
190000 kPa | 1292 ± 5 | 1281 ± 5 | 1270 ± 5 | 1260 ± 5 | 1250 ± 5
200000 kPa | 1295 ± 5 | 1285 ± 5 | 1274 ± 5 | 1264 ± 5 | 1253 ± 5
